One substance from patent publication US20260174829A1, “METHODS OF REDUCING TYPE 2 CYTOKINE-MEDIATED INFLAMMATION USING NEUROMEDIN PEPTIDES” (Rutgers, The State University of New Jersey, priority 2018, published 2026) can be followed below.

The subject of test [1] is papain-induced allergic airway inflammation. Put plainly: Papain-induced allergic airway inflammation, Nmb i.t. The test is classed as in vivo, mouse. Conditions: papain-challenged mice, Nmb i.t. vs PBS, lung. Here is the method:
(§1) FIGS. 7A-7I. Nmb treatment is sufficient to suppress allergic airway inflammation. Mice challenged with papain were treated with PBS or Nmb (i.t.) and (A) Lung ILC2s, (B) IL-5+ and IL-13+ ILC2s, and (C) eosinophils were evaluated. […] Mesenteric lymph nodes (MLNs) were isolated on day 7 post-Nb and single cells suspensions were treated with anti-CD3 and anti-CD28 in the presence or absence of Nmb for 48 hours and (E), IL-5 and (F) IL-13 were quantified in cell-free supernatants by ELISA. (F-I), Modified versions of Nmb (see Table 2) were tested for their ability to alter IL-5 and IL-13 production from anti-CD3 and anti-CD28 MLN cells isolated on day 7 post-Nb. P values were determined by two-tailed Student's t-tests. Blue asterisks represent comparisons between media treated controls and native Nmb. Red asterisks represent comparisons between media treated controls and modified version of Nmb as described in Table 2. (*,p<0.05), (**,p<0.01), (***,p<0.001) or (F-I).
A well-established model of papain-induced allergic airway inflammation known to be dependent on ILC2s was utilized (19, 20). Mice treated with papain presented with elevated percentages of ILC2s (FIG. 7A), elevated expression of IL-5 and IL-13 by ILC2s (FIG. 7B) and lung eosinophilia (FIG. 7C). […] Thus, Nmb negatively regulate ILC2 responses both in vivo and in vitro.

Another test concerns TH2 cells. Description: Anti-CD3/anti-CD28 stimulated lymph node cells (day 7 post-Nb), IL-5/IL-13 ELISA. The class given is cell-based, mouse. The conditions noted are these: LN cells day 7 post-Nb, anti-CD3 and anti-CD28, 48 hours, vs media control. Here is the method: as §1
FIGS. 8A-8B. Mesenteric lymph nodes (MLNs) were isolated on day 7 post-Nb and single cells suspensions were treated with anti-CD3 and anti-CD28 in the presence or absence of native Nmb or modified versions of the peptide for 48 hours and (A), IL-5 and (B) IL-13 were quantified in cell-free supernatants by ELISA. P values were determined by two-tailed Student's t-tests. Blue asterisks represent comparisons between media treated controls and native Nmb. Red asterisks represent comparisons between media treated controls and modified version of Nmb as described in Table 2. (*,p<0.05), (**,p<0.01), (***,p<0.001).
At the time points evaluated post-Nb, the majority of the type 2 cytokines are ILC2-derived (14) and any effects Nmb is having on TH2 cell responses may be difficult to detect. To address this, lung-draining LNs were isolated on day 7 post-Nb and stimulated with anti-CD3 and -CD28 to activate T cells in both the presence of absence of recombinant Nmb. LN cells treated with anti-CD3 and -CD28 produced increased amounts of IL-5, and IL-13 (FIGS. 7D, 7E).
Thus, Nmb can be employed to reduce type 2 cytokine-mediated inflammation. Native Nmb is a 10-mer peptide (SEQ ID NO: 1) that operates via its ability to bind the Nmb receptor (15). This example describes the results of an alanine scan to systematically replace various residues of the Nmb with alanine (Table 2) and the resulting ability of the variant Nmb peptides to inhibit type 2 cytokine production by TH2 cells. Further, caps were added to the native form of Nmb (SEQ ID NO: 1) and its bioactivity monitored (FIG. 5A).
(In general: ELISA stands for enzyme-linked immunosorbent assay.)

Another test concerns NMBR expression by ILC2s. Description: NMBR expression by cultured lung ILC2s, flow cytometry. The test is classed as cell-based, mouse. Conditions: ILC2s day 7 post-Nb, survival and/or activating cytokines, day 4 post-culture. An excerpt: FIG. 9. Basophils regulate NMBR expression. ILC2s were sort-purified from the lung of Nb-infected mice (day 7) and stimulated with survival cytokines (IL-7 and IL-2) and also with activated basophils, IL-4 or IL-33 overnight. NMBR expression was monitored by flow cytometric analysis post-culture. Data are presented as […] mean fluorescent intensity (GMFI). Statistical comparisons were done using a Student's t-test.
FIG. 14. Prostaglandin E2 upregulates expression of NMBR on lymphocytes. Lung ILC2s were sort-purified from the lungs of mice on day 7 post-Nb and cultured with a combination of survival cytokines (IL-2 and IL-7) and/or activating cytokines (IL-25 and IL-33). In addition, cultures were treated with NMB or prostaglandin E2 (PGE2) and the expression of NMBR was measured by flow cytometric analysis on day 4 post-culture. Statistical analysis was performed using a student's t-test. Negative NMBR staining as determined by an isotype control antibody is also shown (Isot).
NMBR expression by lung ILC2s was reduced when basophils are depleted following an Nb infection. To determine whether basophils directly mediate expression of NMBR or whether they operate through intermediate pathways, ILC2s were sort-purified from the lungs of Nb-infected mice (day 7) and cultured with the survival cytokines IL-2 and IL-7. Additionally, the ILC2s were cultured with activated basophils, IL-4, or IL-33 overnight. NMBR expression was subsequently monitored by flow cytometric analysis post-culture.
To better determine the mechanisms through which basophils regulate expression of NMBR on lymphocytes, ILC2s were cultured with a combination of survival and activating cytokines in the presence or absence of NMB or prostaglandin E2 (PGE2).
A general note: In flow cytometry, cells or beads pass a laser one at a time.

On to H2N-GNLWATGHFM-amide [Nmb], for which, in test [1], the “papain-induced ILC2 responses” value is “sufficient to reduce” and the papain-induced eosinophilia result is given as “sufficient to reduce”. Also, in the test on TH2 cells, the “IL-5 production from activated TH2 cells” value is recorded as “significantly reduced” and the “IL-13 production from activated TH2 cells” value is given as “significantly reduced”. Moreover, the “IL-5 production from activated TH2 cells” value in the test on TH2 cells (listed as Native Nmb) is “significantly reduce”. For the same substance, in the test with TH2 cells (listed as native Nmb), the “IL-5 production from activated TH2 cells” value was “sufficient to reduce” and the “IL-13 production from activated TH2 cells” value is “sufficient to reduce”. Moreover, the “NMBR expression by ILC2s” value in the test with NMBR expression by ILC2s is listed as “failed to upregulate”.
